Biological target: T1, MRB1590(10–668) (Trypanosoma brucei, UniProt Q57ZF2)
T1 construct: gene Tb03.30P12.70; residues 10-668 (full length 668, 72 kDa); homodimer, ATP site formed by both subunits
T1 sequence (Q57ZF2 10-668): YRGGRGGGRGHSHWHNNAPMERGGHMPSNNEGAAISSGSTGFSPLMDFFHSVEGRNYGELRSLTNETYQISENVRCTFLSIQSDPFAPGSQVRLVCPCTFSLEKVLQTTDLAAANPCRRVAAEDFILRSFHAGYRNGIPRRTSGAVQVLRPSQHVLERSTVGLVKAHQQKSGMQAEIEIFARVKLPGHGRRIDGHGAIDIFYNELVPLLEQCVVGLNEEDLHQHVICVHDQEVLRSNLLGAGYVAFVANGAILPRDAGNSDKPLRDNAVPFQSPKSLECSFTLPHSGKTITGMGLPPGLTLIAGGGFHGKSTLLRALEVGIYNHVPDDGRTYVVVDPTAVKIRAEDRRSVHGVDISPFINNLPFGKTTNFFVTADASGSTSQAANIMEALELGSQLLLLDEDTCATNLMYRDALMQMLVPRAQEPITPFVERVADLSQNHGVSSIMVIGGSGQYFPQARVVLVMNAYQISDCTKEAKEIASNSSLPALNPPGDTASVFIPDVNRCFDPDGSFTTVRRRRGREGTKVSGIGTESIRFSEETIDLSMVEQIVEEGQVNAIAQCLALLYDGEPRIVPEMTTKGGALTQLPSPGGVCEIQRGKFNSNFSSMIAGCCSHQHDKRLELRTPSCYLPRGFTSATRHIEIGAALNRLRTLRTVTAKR
Test: ITC
Format: binding

With `Nc1ncnc2c1ncn2[C@@H]1O[C@H](COP(=O)(O)OP(=O)(O)NP(=O)(O)O)[C@@H](O)[C@H]1O` [AMP-PNP] as the compound, how does the Kd read?
Its Kd is 1.27 ± 0.21 µM.

For `Nc1ncnc2c1ncn2[C@@H]1O[C@H](COP(=O)(O)OP(=O)(O)O)[C@@H](O)[C@H]1O` [ADP], which Kd is on record?
The Kd was 0.885 ± 0.049 µM.
